From ChEMBL document CHEMBL6127127, “Structure-Guided Design of Affinity/Covalent-Bond Dual-Driven Inhibitors Targeting the AMP Site of FBPase” (J Med Chem, 2024)
The source made the active and inactive calls. The rule behind the calls is not given here.

Legend:
[1] = Inhibition of recombinant wildtype N-terminus SYYHHHHHH-tagged human fructose 1,6-bisphosphatase extracted from Escherichia coli BL21 (DE3) cells using fructose1,6-bisphosphate as substrate assessed as NADP+ reduction to NADPH in presence of NADP+, PGI and G6PDH by spectrophotometric analysis
[2] = organism: Homo sapiens; test: (§1) Selectivity ratio of IC50 for inhibition of N-terminus SYYHHHHHH-tagged human fructose 1,6-bisphosphatase C179S mutant extracted from Escherichia coli BL21 (DE3) cells to IC50 for inhibition of wildtype N-terminus SYYHHHHHH-tagged human fructose 1,6-bisphosphatase extracted from Escherichia coli BL21 (DE3) cells
[3] = target: Fructose-1,6-bisphosphatase 1 (Homo sapiens, UniProt P09467, C180S); test: Inhibition of N-terminus SYYHHHHHH-tagged human fructose 1,6-bisphosphatase C179S mutant extracted from Escherichia coli BL21 (DE3) cells using fructose1,6-bisphosphate as substrate assessed as NADP+ reduction to NADPH in presence of NADP+, PGI and G6PDH by spectrophotometric analysis
Fructose-1,6-bisphosphatase 1 (Homo sapiens, UniProt P09467, C180S), sequence (P09467 2-338 C180S limits assumed): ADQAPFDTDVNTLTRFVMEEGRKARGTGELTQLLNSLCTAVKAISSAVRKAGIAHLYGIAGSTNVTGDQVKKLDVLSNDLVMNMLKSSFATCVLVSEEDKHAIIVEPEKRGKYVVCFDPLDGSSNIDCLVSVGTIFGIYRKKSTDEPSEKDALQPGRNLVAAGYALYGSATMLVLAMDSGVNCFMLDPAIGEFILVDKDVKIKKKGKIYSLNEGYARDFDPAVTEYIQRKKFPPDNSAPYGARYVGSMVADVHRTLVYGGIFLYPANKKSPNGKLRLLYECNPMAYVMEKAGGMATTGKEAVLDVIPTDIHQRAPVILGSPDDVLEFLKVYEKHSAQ

[4] = target: Fructose-1,6-bisphosphatase 1 (Homo sapiens, UniProt P09467, C129S); test: Inhibition of N-terminus SYYHHHHHH-tagged human fructose 1,6-bisphosphatase C128S mutant extracted from Escherichia coli BL21 (DE3) cells using fructose1,6-bisphosphate as substrate assessed as NADP+ reduction to NADPH in presence of NADP+, PGI and G6PDH by spectrophotometric analysis
Fructose-1,6-bisphosphatase 1 (Homo sapiens, UniProt P09467, C129S), sequence (P09467 2-338 C129S limits assumed): as the sequence (P09467 2-338 C180S limits assumed) above, with C128S, S179C counted along it

[5] = organism: Homo sapiens; test: as §1, with “C128S” for “C179S”
[6] = test system: Fructose-1,6-bisphosphatase 1 (Homo sapiens), P09467 [UNDEFINED MUTATION]; test: Binding affinity to N-terminus SYYHHHHHH-tagged human fructose 1,6-bisphosphatase C179S mutant extracted from Escherichia coli BL21 (DE3) cells at 20 uM by Western blot analysis
Fructose-1,6-bisphosphatase 1 (Homo sapiens), P09467 [UNDEFINED MUTATION], sequence (P09467 whole entry, looked up, stated change not applied): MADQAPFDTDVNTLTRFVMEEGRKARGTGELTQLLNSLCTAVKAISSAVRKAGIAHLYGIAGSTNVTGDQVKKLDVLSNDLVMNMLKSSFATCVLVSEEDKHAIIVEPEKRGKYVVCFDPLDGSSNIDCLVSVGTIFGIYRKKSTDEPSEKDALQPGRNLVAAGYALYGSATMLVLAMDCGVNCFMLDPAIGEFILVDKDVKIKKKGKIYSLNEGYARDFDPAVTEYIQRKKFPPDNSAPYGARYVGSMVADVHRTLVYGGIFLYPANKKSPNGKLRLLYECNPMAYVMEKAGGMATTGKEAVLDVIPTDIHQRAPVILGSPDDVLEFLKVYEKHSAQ

[7] = test system: Fructose-1,6-bisphosphatase 1 (Homo sapiens), P09467 [UNDEFINED MUTATION]; test: Binding affinity to N-terminus SYYHHHHHH-tagged human fructose 1,6-bisphosphatase C116S mutant (Cys179 residue) extracted from Escherichia coli BL21 (DE3) cells at 20 uM by Western blot analysis
[8] = test system: Fructose-1,6-bisphosphatase 1 (Homo sapiens), P09467 [UNDEFINED MUTATION]; test: Binding affinity to N-terminus SYYHHHHHH-tagged human fructose 1,6-bisphosphatase C183S mutant (Cys179 residue) extracted from Escherichia coli BL21 (DE3) cells at 20 uM by Western blot analysis
[9] = test system: Fructose-1,6-bisphosphatase 1 (Homo sapiens), P09467 [UNDEFINED MUTATION]; test: Binding affinity to N-terminus SYYHHHHHH-tagged human fructose 1,6-bisphosphatase C281S mutant (Cys179 residue) extracted from Escherichia coli BL21 (DE3) cells at 20 uM by Western blot analysis
[10] = test system: L02; test: Binding affinity to fructose 1,6-bisphosphatase in human L02 cells incubated for 2 hrs by SDS-PAGE and western blot based pull down assay; assay type: cell-based; details: dose 10-40 µM
[11] = organism: Homo sapiens; test: Binding affinity to recombinant wildtype N-terminus SYYHHHHHH-tagged human fructose 1,6-bisphosphatase extracted from Escherichia coli BL21 (DE3) cells by Western blot analysis; details: dose 10-80 µM
[12] = test system: Fructose-1,6-bisphosphatase 1 (Homo sapiens), P09467 [UNDEFINED MUTATION]; test: Binding affinity to N-terminus SYYHHHHHH-tagged human fructose 1,6-bisphosphatase C38S mutant (Cys179 residue) extracted from Escherichia coli BL21 (DE3) cells at 20 uM by Western blot analysis
[13] = test system: Fructose-1,6-bisphosphatase 1 (Homo sapiens), P09467 [UNDEFINED MUTATION]; test: Binding affinity to N-terminus SYYHHHHHH-tagged human fructose 1,6-bisphosphatase C92S mutant (Cys179 residue) extracted from Escherichia coli BL21 (DE3) cells at 20 uM by Western blot analysis
[14] = test system: Fructose-1,6-bisphosphatase 1 (Homo sapiens), P09467 [UNDEFINED MUTATION]; test: Binding affinity to N-terminus SYYHHHHHH-tagged human fructose 1,6-bisphosphatase C128S mutant (Cys179 residue) extracted from Escherichia coli BL21 (DE3) cells at 20 uM by Western blot analysis
[15] = organism: Homo sapiens; test: Binding affinity to recombinant wildtype N-terminus SYYHHHHHH-tagged human fructose 1,6-bisphosphatase (Cys179 residue) extracted from Escherichia coli BL21 (DE3) cells at 20 uM by Western blot analysis

| SMILES | IC50 [1] [µM] | other results |
| --- | --- | --- |
| O=C(CBr)Nc1ccc(S(=O)(=O)NC(=O)Nc2cccc(Br)c2)cc1 | 14.8 | – |
| C#CCNC(=O)c1ccc(S(=O)(=O)NC(=O)Nc2cccc(Br)c2)cc1 | 39.8 | – |
| O=C(Nc1cccc(Br)c1)NS(=O)(=O)c1ccc(NC(=O)c2ccc(F)cc2)cc1 | 81.8 | – |
| Cc1cc(NC(=O)NS(=O)(=O)c2ccc(CCNC(=O)CBr)cc2)no1 | 13.3 | – |
| O=C(CBr)NCCc1ccc(S(=O)(=O)NC(=O)Nc2ccc([N+](=O)[O-])cc2)cc1 | 19.3 | – |
| C=CC(=O)NCCc1ccc(S(=O)(=O)NC(=O)Nc2cccc(Br)c2)cc1 | > 500 | – |
| CC(Cl)C(=O)NCCc1ccc(S(=O)(=O)NC(=O)Nc2cccc(Br)c2)cc1 (stereo unspecified) | 170 | – |
| C/C=C/C(=O)NCCc1ccc(S(=O)(=O)NC(=O)Nc2cccc(Br)c2)cc1 | > 500 | – |

These reach a lower IC50 [1]. Values come first.

| IC50 [1] [µM] | SMILES | other results |
| --- | --- | --- |
| 9.77 | C#Cc1ccc(NC(=O)NS(=O)(=O)c2ccc(CCNC(=O)CBr)cc2)cc1 | – |
| 8.9 | C#CCOc1ccc(NC(=O)NS(=O)(=O)c2ccc(CCNC(=O)CBr)cc2)cc1 | Activity [6]: inactive; Activity [7]: Active; Activity [8]: Active; Activity [9]: Active; Activity [10]: Dose-Dependent Effect; Activity [11]: Dose-Dependent Effect; Activity [12]: Active; Activity [13]: Active; Activity [14]: Active; Activity [15]: Active |
| 8.04 | CC(C)(C)c1ccc(NC(=O)NS(=O)(=O)c2ccc(CCNC(=O)CBr)cc2)cc1 | – |
| 7.48 | Cc1ccc(NC(=O)NS(=O)(=O)c2ccc(CCNC(=O)CBr)cc2)cc1 | – |
| 4.51 | O=C(CBr)NCc1ccc(S(=O)(=O)NC(=O)Nc2cccc(Br)c2)cc1 | – |
| 3.55 | O=C(Nc1cccc(Br)c1)NS(=O)(=O)c1ccc(NC(=O)c2ccc(Cl)nc2)cc1 | Ratio IC50 [2]: 2.2; IC50 [3]: 7.83 µM; IC50 [4]: 71.8 µM; Ratio IC50 [5]: 20 |
| 3.05 | O=C(CBr)NCCc1ccc(S(=O)(=O)NC(=O)Nc2ccc(I)cc2)cc1 | – |
| 2.94 | O=C(CBr)NCCc1ccc(S(=O)(=O)NC(=O)Nc2ccc3scnc3c2)cc1 | – |
| 2.93 | C#Cc1cccc(NC(=O)NS(=O)(=O)c2ccc(CCNC(=O)CBr)cc2)c1 | – |
